Patent publication US5527882A, “Polypeptide having an amino acid replaced with N-benzylglycine” (The Regents of the University of California, priority 1994, dated 1996)
Square brackets hold non-standard residues; d marks the D form. Ends that are not written are not given here. Peptide text beside a SMILES is read from it.

Tests used:
pulmonary circulation = settings: rat, in vivo
Text: (§1) See Vavrek supra for assay methods.
Bradykinin and (NBzlGly^7)-bradykinin were virtually identical with respect to destruction (98-99%) on passage through the pulmonary circulation.

rat blood pressure = assay: Rat blood pressure assay; format: in vivo; settings: bradykinin = 100%
Text: | See Vavrek supra for assay methods.

rat uterus = assay: Smooth muscle bioassay: rat uterus contraction; format: cell-based; settings: bradykinin = 100%
Text: as §1
Rat Uterus, rat uterus contraction;

guinea pig ileum = assay: Smooth muscle bioassay: guinea pig ileum contraction; format: cell-based; settings: bradykinin = 100%
Text: as §1
GP Ileum, guinea pig ileum contraction;

Question: With NC(N)=NCCC[C@H](NC(=O)[C@H](Cc1ccccc1)NC(=O)[C@@H](Cc1ccccc1)NC(=O)[C@H](CO)NC(=O)[C@H](Cc1ccccc1)NC(=O)CNC(=O)[C@@H]1CCCN1C(=O)[C@@H]1CCCN1C(=O)[C@@H](N)CCCN=C(N)N)C(=O)O [[D-Phe^7]-Bradykinin, (D-Phe^7)-bradykinin] (H-RPPGFS[dF]FR-OH) as the molecule, how does the Destruction (pulmonary circulation) read?
Answer: The Destruction was 36%.

Question: For RPPGFSPFR [Bradykinin], which “Rat Blood Pressure IA, potency relative to bradykinin” value (rat blood pressure; intraaortic administration) is on record?
Answer: The value was 100%.

Question: What about the “Rat Blood Pressure IV, potency relative to bradykinin” value (rat blood pressure; intravenous administration) of the same molecule?
Answer: Its value is 100%.

Question: And the “Smooth Muscle Rat Uterus (rat uterus contraction), potency relative to bradykinin” value (rat uterus)?
Answer: The value was 100%.

Question: And the “Smooth Muscle GP Ileum (guinea pig ileum contraction), potency relative to bradykinin” value (guinea pig ileum)?
Answer: Its value is 100%.
